Reference: paper PMC3045100, “Cell-Penetrating Penta-Peptides (CPP5s): Measurement of Cell Entry and Protein-Transduction Activity” (Pharmaceuticals, 2010)

Legend:
[1] = tested on: HeLa cells; assay: Protection from etoposide-induced apoptosis (Hoechst nuclear staining); format: cell-based; conditions: 200 μM peptide 3 h pretreatment, etoposide 10 μM, 24 h, Hoechst dye nuclear staining, triplicate samples, P < 0.01
Experimental: (§1) Figure 3 Protection of cells from apoptosis by VPTLK. a-d. Proteoglycan is not required for VPTLK cell entry. Microscopic analysis of cell entry of Fam-VPTLK in Chinese Hamster Ovary (CHO) A745 cells lacking proteoglycans in the plasma membrane (a) and CHO K1 cells that express proteoglycans (b). CHO A745 and K1 cells were incubated with Fam-VPTLK (200 μM) for 3 h at 37 °C. […] Apoptosis was determined by using Hoechst dye nuclear staining. Each bar represents the mean of triplicate samples and standard error, and statistical significance was determined by an unpaired student t test; “ns”: not significant, *P < 0.05, and **P < 0.01. e. […] Jurkat cells were pre-incubated with VPTLK 200 μM for 3 h prior to STS treatment (100 nM, 3 or 6 h). Apoptosis was determined by Hoechst dye nuclear staining. Each bar represents the mean of triplicate samples and standard error, and statistical significance was determined by an unpaired student t test: **P < 0.01. f. […] Apoptosis was determined by Hoechst dye nuclear staining. […]
(§2) To induce Bax-mediated apoptosis in HeLa cells, cells were transfected with pEGFP-Bax (1 µg) and apoptosis was determined 24 h after the transfection. […] To detect apoptosis, cells were stained with Hoechst 33258 dye, and the numbers of cells with apoptotic nuclei were counted using fluorescence microscopy. Three-hundred cells were analyzed in triplicate samples. […]

[2] = tested on: CHO A745 cells; assay: Protection from staurosporine-induced apoptosis (Hoechst nuclear staining); format: cell-based, Chinese hamster; conditions: VPTLK 3 h pre-incubation, 100 nM STS for 3 and 6 h, Hoechst dye nuclear staining, triplicate samples
Experimental: as §1, §2

[3] = tested on: CHO K1 cells; assay: as above; format: cell-based, Chinese hamster; conditions: VPTLK 3 h pre-incubation, 100 nM STS for 3 and 6 h, Hoechst dye nuclear staining, triplicate samples
Experimental: as §1, §2

VPTLK
Protection from etoposide-induced apoptosis, HeLa [1]: protected HeLa cells from etoposide-induced apoptosis
Protection from staurosporine treatment, CHO A745 [2]: protected both cell lines
Protection from staurosporine treatment, CHO K1 [3]: protected both cell lines
